In ChEMBL document CHEMBL1138642, “In vitro advanced antimycobacterial screening of cobalt(II) and copper(II) complexes of fluorinated isonicotinoylhydrazones” (2004):
Values after ≈ are worked out from the molar mass of the structure shown.

Experiments:
Format in all cases: functional
[1] = test system: Mycobacterium tuberculosis; test: Minimum bactericidal concentration required against Mycobacterium tuberculosis H37Rv strain was determined in monolayers of mouse bone marrow macrophages
[2] = test system: Mycobacterium tuberculosis; test: Effective concentration required to reduce CFU of Mycobacterium tuberculosis Erdman (ATCC 35801) strain was determined in monolayers of mouse bone marrow macrophages
[3] = test system: Mycobacterium tuberculosis; test: Effective concentration required compared to that of Minimum inhibition concentration required against Mycobacterium tuberculosis H37Rv strain was determined; Range is 0.6-1.2
[4] = test system: Mycobacterium tuberculosis; test: Effective concentration required to reduce CFU of Mycobacterium tuberculosis Erdman (ATCC 35801) strain was determined in monolayers of mouse bone marrow macrophages; […]
[5] = test system: Mycobacterium tuberculosis; test: Effective concentration required to reduce CFU of Mycobacterium tuberculosis Erdman (ATCC 35801) strain was determined in monolayers of mouse bone marrow macrophages; Range is 0.5-1.5

| Compound | MBC [1] | EC90 [2] | EC99 [2] | EC90/MIC [3] | EC90 [4] | EC99 [5] |
| --- | --- | --- | --- | --- | --- | --- |
| NNC(=O)c1ccncc1 [ISONIAZID] | 0.1 µg/mL (≈ 0.729 µM) | 0.03 µg/mL (≈ 0.219 µM) | 0.42 µg/mL | 1.2 |  |  |
| CO[C@H]1/C=C/O[C@@]2(C)Oc3c(C)c(O)c4c(O)c(c(/C=N/N5CCN(C)CC5)c(O)c4c3C2=O)NC(=O)/C(C)=C\C=C\[C@H](C)[C@H](O)[C@@H](C)[C@@H](O)[C@@H](C)[C@H](OC(C)=O)[C@@H]1C [RIFAMPIN] |  |  |  |  | 0.1 µg/mL (≈ 0.122 µM) | 1.5 µg/mL |
